Results as given in the supplement of paper PMC11208160.

Assay: recombinant barcode read abundance after kanamycin selection (control-corrected) (log10(CPM+1)); higher = more efficient recombination; sequences stand for … in AGTGCAGAGAAAATCGGCCAGTTTTCTCTGCCTGCAGTCCGCATGCCGT…AGATTTATGCAGCGGACTGCCTTTCTCCCAAAGTGATAAACCGGACAGTATCATGGACCGGTTTTCCCGGTAATCCGTATTTGCAAGGTTGGTTTCACT; site = the 11-nt target
Summary of the method: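 Each value is log10(CPM+1). It describes recombination efficiency, taken as averaged, control-corrected counts per million of barcodes at recombinant junctions. The pooled E. coli library paired targets with IS621 bridge RNA target-binding loops, was co-electroporated with a donor plasmid, and was plated twice on chloramphenicol/ampicillin LB agar (control) and twice on chloramphenicol/ampicillin/kanamycin containing 0.1 mM IPTG.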
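Further: IS621 recombinase and bridge RNA in Escherichia coli cells.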

Sequence | recombinant barcode read abundance (log10)
AGGGCATCTTGGGTTCTAACCTGTTGCCT (site AGGGCGTCTCG) | 0.245
AGGGTCGCTTGGGTTCTAACCTGTTGCCT (site AGGGTCGCTAG) | 2.5
AGGGTCGCTTGGGTTCTAACCTGTTGCCT (site CACAGTCCTTA) | 0.344
AGGGTGCCTTGGGTTCTAACCTGTTGCTA (site AGGGTGCCTTA) | 2.11
AGGGTGCCTTGGGTTCTAACCTGTTGCTA (site AGGGTGTCTCA) | 0.106
AGGGTTCCTTGGGTTCTAACCTGTTGCTT (site AGGGTTCCTAA) | 2.05
AGGGTTCCTTGGGTTCTAACCTGTTGCTT (site TCATGGGCTCT) | 0.0235
AGGTAGACTTGGGTTCTAACCTGTTGCCA (site AGGAAGACTTG) | 0.0263
AGGTAGACTTGGGTTCTAACCTGTTGCCA (site AGGCAGACTTG) | 0.583
AGGTAGACTTGGGTTCTAACCTGTTGCCA (site AGGGAGACTTG) | 0.179
AGGTAGACTTGGGTTCTAACCTGTTGCCA (site AGGTAGACTTG) | 1.5
AGGTCACCTTGGGTTCTAACCTGTTGCGT (site AGGTCACCTAA) | 0.276
AGGTCACCTTGGGTTCTAACCTGTTGCGT (site AGGTCACCTAC) | 2.82
AGGTCACCTTGGGTTCTAACCTGTTGCGT (site AGGTCACCTAG) | 0.536
AGGTCACCTTGGGTTCTAACCTGTTGCGT (site AGGTCACCTAT) | 1.08
AGGTCACCTTGGGTTCTAACCTGTTGCTT (site AGGTCACCTAA) | 0.941
AGGTCACCTTGGGTTCTAACCTGTTGCTT (site AGGTCACCTAC) | 0.0772
AGGTCACCTTGGGTTCTAACCTGTTGCTT (site AGGTCACCTAG) | 0.914
AGGTCACCTTGGGTTCTAACCTGTTGCTT (site AGGTCACCTAT) | 1.24
AGGTCCTCTTGGGTTCTAACCTGTTGCGT (site AGGTCCTCTAA) | 0.295
AGGTCCTCTTGGGTTCTAACCTGTTGCGT (site AGGTCCTCTAC) | 2.67
AGGTCCTCTTGGGTTCTAACCTGTTGCGT (site AGGTCCTCTAG) | 0.73

Sequence | recombinant barcode read abundance (log10)
AGGTCCTCTTGGGTTCTAACCTGTTGCGT (site AGGTCCTCTAT) | 1.71
AGGTCTGCTTGGGTTCTAACCTGTTGCCT (site AGGTATGCTAG) | 0.321
AGGTCTGCTTGGGTTCTAACCTGTTGCCT (site AGGTCTGCTAG) | 0.58
AGGTCTGCTTGGGTTCTAACCTGTTGCCT (site AGGTGTGCTAG) | 0.12
AGGTCTGCTTGGGTTCTAACCTGTTGCCT (site AGGTTTGCTAG) | 0.0282
AGGTGTGCTTGGGTTCTAACCTGTTGCCT (site AGGTATGCTAG) | 0.289
AGGTGTGCTTGGGTTCTAACCTGTTGCCT (site AGGTCTGCTAG) | 0.123
AGGTGTGCTTGGGTTCTAACCTGTTGCCT (site AGGTGTGCTAG) | 1.19
AGGTGTGCTTGGGTTCTAACCTGTTGCCT (site AGGTTTGCTAG) | 0.502
AGGTTCCCTTGGGTTCTAACCTGTTGCTA (site AGGTTCCCTAA) | 0.0211
AGGTTCCCTTGGGTTCTAACCTGTTGCTA (site AGGTTCCCTCA) | 0.0107
AGGTTCCCTTGGGTTCTAACCTGTTGCTA (site AGGTTCCCTGA) | 0.0194
AGGTTCCCTTGGGTTCTAACCTGTTGCTA (site AGGTTCCCTTA) | 1.32
AGGTTCCCTTGGGTTCTAACCTGTTGCTT (site AGGTTCCCTAA) | 1.41
AGGTTCCCTTGGGTTCTAACCTGTTGCTT (site AGGTTCCCTCA) | 0.0899
AGGTTCCCTTGGGTTCTAACCTGTTGCTT (site AGGTTCCCTGA) | 0.621
AGGTTCCCTTGGGTTCTAACCTGTTGCTT (site AGGTTCCCTTA) | 0.183
AGGTTTGCTTGGGTTCTAACCTGTTGCCT (site AGGTATGCTAG) | 0.168
AGGTTTGCTTGGGTTCTAACCTGTTGCCT (site AGGTCTGCTAG) | 0.471
AGGTTTGCTTGGGTTCTAACCTGTTGCCT (site AGGTGTGCTAG) | 0.018
AGGTTTGCTTGGGTTCTAACCTGTTGCCT (site AGGTTTGCTAG) | 0.0479
AGGTTTGCTTGGGTTCTAACCTGTTGCTT (site AGGTTTGCTAA) | 0.00886

Sequence | recombinant barcode read abundance (log10)
AGGTTTGCTTGGGTTCTAACCTGTTGCTT (site GTCACAACTCG) | 0.101
AGTACGCCTTGGGTTCTAACCTGTTGCCT (site AGTACGCCTAG) | 0.0474
AGTACGCCTTGGGTTCTAACCTGTTGCCT (site TGAACGCCTAG) | 0.07
AGTAGAACTTGGGTTCTAACCTGTTGCCT (site AGTAGAACTAG) | 0.387
AGTAGAACTTGGGTTCTAACCTGTTGCCT (site CGTAGAGCTAG) | 0.172
AGTAGGACTTGGGTTCTAACCTGTTGCCT (site AGTAGGACTAG) | 0.242
AGTAGGACTTGGGTTCTAACCTGTTGCCT (site CGTAGGACTAG) | 0
AGTAGGACTTGGGTTCTAACCTGTTGCCT (site GGTAGGACTAG) | 0.0674
AGTAGGACTTGGGTTCTAACCTGTTGCCT (site TGTAGGACTAG) | 0.213
AGTAGTTCTTGGGTTCTAACCTGTTGCAG (site AGTAGTTCTCT) | 0.683
AGTAGTTCTTGGGTTCTAACCTGTTGCAG (site CTCGTAGCTAG) | 0.104
AGTCAAACTTGGGTTCTAACCTGTTGCCT (site AGTCAAACTAG) | 0.157
AGTCAAACTTGGGTTCTAACCTGTTGCCT (site AGTCATACTAG) | 0.141
AGTCACACTTGGGTTCTAACCTGTTGCTA (site AGTCACACTCA) | 0.179
AGTCACACTTGGGTTCTAACCTGTTGCTA (site AGTCACACTTA) | 1.48
AGTCAGTCTTGGGTTCTAACCTGTTGCGT (site AGTCAGTCTAC) | 2.33
AGTCAGTCTTGGGTTCTAACCTGTTGCGT (site AGTCATTCTAT) | 0.0526
AGTCATACTTGGGTTCTAACCTGTTGCCT (site AGTCAAACTAG) | 0
AGTCATACTTGGGTTCTAACCTGTTGCCT (site AGTCATACTAG) | 0.232
AGTCATCCTTGGGTTCTAACCTGTTGCCT (site AGTCATACTAT) | 0.0998
AGTCATCCTTGGGTTCTAACCTGTTGCCT (site AGTCATCCTAG) | 0.667
AGTCCTGCTTGGGTTCTAACCTGTTGCCT (site AGTCCTGCTAG) | 0.722

Sequence | recombinant barcode read abundance (log10)
AGTCCTGCTTGGGTTCTAACCTGTTGCCT (site CGTCCTGCTAG) | 0.072
AGTCCTGCTTGGGTTCTAACCTGTTGCCT (site GGTCCTGCTAG) | 0.154
AGTCCTGCTTGGGTTCTAACCTGTTGCCT (site TGTCCTGCTAG) | 0.0318
AGTCGATCTTGGGTTCTAACCTGTTGCTT (site ACTCGATCTAG) | 0.0101
AGTCGATCTTGGGTTCTAACCTGTTGCTT (site AGTCGATCTAA) | 0.496
AGTCGGCCTTGGGTTCTAACCTGTTGCCT (site AGTCGGCCTAG) | 0.129
AGTCGGCCTTGGGTTCTAACCTGTTGCCT (site ATTCGGCCTAG) | 0.228
AGTCGGTCTTGGGTTCTAACCTGTTGCAT (site AGTCGGTCTAT) | 0.813
AGTCGGTCTTGGGTTCTAACCTGTTGCAT (site GGTCCGTCTAT) | 0.0825
AGTCTACCTTGGGTTCTAACCTGTTGCTT (site AGTCTACCTAA) | 0.331
AGTCTACCTTGGGTTCTAACCTGTTGCTT (site CGTCTACCTAA) | 0.0324
AGTCTAGCTTGGGTTCTAACCTGTTGCCT (site AGTCTAGCTAG) | 0.0325
AGTCTAGCTTGGGTTCTAACCTGTTGCCT (site AGTCTAGCTCG) | 0.692
AGTCTAGCTTGGGTTCTAACCTGTTGCCT (site AGTCTAGCTGG) | 0.141
AGTCTAGCTTGGGTTCTAACCTGTTGCCT (site AGTCTAGCTTG) | 0.0207
AGTCTAGCTTGGGTTCTAACCTGTTGCTA (site AGTCTAGCTGA) | 0.166
AGTCTAGCTTGGGTTCTAACCTGTTGCTA (site AGTCTAGCTTA) | 0.175
AGTGAGACTTGGGTTCTAACCTGTTGCGG (site ACCGAGACTCC) | 1.09
AGTGAGACTTGGGTTCTAACCTGTTGCGG (site AGTGAGACTCC) | 2.99
AGTGCGCCTTGGGTTCTAACCTGTTGCTA (site AGTGCGCCTTA) | 0.341
